Columns and labels:
[1] = Crystal; Adiabatic calorimetry
[2] = Molar enthalpy of transition or fusion; details: Crystal; Adiabatic calorimetry
[3] = molar heat capacity at saturation pressure; details: Liquid, Vacuum adiabatic calorimetry

CC(C)C [2-methylpropane]
Details	Molar enthalpy of transition or fusion [kcal/mol]	Triple point temperature [K]
[1]	–	113.71
[2]	1.074	–

[3]
Details	molar heat capacity [J/K/mol]
116.8 K	99.97
119.57 K	100.39
122.23 K	100.86
124.96 K	101.19
127.55 K	101.83
130.24 K	102.1
132.77 K	102.54
135.42 K	103.17
137.9 K	103.68
140.51 K	103.94
142.95 K	104.41
145.52 K	104.91
147.92 K	105.3
150.47 K	105.75
152.83 K	106.16
155.34 K	106.5
157.66 K	107.02
160.15 K	107.18
162.44 K	107.78
164.89 K	108.27
167.16 K	108.62
169.58 K	109.08
171.82 K	109.17
174.21 K	110.08
176.43 K	110.08
178.8 K	110.97
180.99 K	111.25
183.33 K	112.12
185.5 K	112
187.82 K	112.78
189.97 K	112.81
192.26 K	113.22
194.39 K	113.72
196.66 K	114.21
198.77 K	114.75
201.01 K	115.05
203.11 K	115.61
205.34 K	115.9
207.41 K	116.35
209.61 K	116.79
211.67 K	117.4
213.86 K	117.52
215.9 K	118.12
218.07 K	118.51
220.09 K	118.79
222.24 K	119.63
224.25 K	119.86
226.39 K	120.61
228.38 K	121.07
230.5 K	121.62
232.48 K	121.93
234.59 K	122.3
236.55 K	122.62
238.65 K	123.75
240.59 K	123.7
242.68 K	124.31
244.61 K	124.72
246.68 K	125.15
248.6 K	125.88
250.66 K	126.37
252.57 K	126.78
254.62 K	127.78
256.52 K	127.81
258.55 K	128.92
260.45 K	128.69
262.47 K	129.62
264.35 K	129.86
266.37 K	130.48
268.24 K	131.47
270.24 K	131.7
272.11 K	132.45
274.1 K	133.44
275.96 K	133.56
277.94 K	134.24
279.8 K	134.7
281.76 K	135.37
283.62 K	135.69
285.57 K	136.15
287.43 K	137.7
289.37 K	137.5
291.23 K	138.84
293.15 K	139.14
295.01 K	139.36
296.93 K	140.12
298.78 K	140.84
300.68 K	141.15
302.54 K	142.6
306.3 K	143.77
308.17 K	143.87
310.04 K	144.87
311.91 K	146
313.77 K	146.62
315.63 K	147.42

Source: the NIST ThermoML archive (doi:10.1021/je9001575)
